Values of other authors, collected in patent US20130028868A1 (priority 2011, published 2013).
Read-outs that look alike come from different tables or passages of the source.

Experiments:
[1] = BDIX rats (50 rats); 3 weeks, 1 mg/kg/week
[2] = test system: animal tissue culture
[3] = not given; remark: listed apart in the source
[4] = not given; remark: listed apart in the source
[5] = test system: cells; conditions: in vitro experiments
[6] = in vivo
[7] = by Cisplatin

For `N.N.[Cl][Pt][Cl]` [Cisplatin], the “deaths within 455 days after first time administration” value [1] is given as 33, the died from leukemia [1] is given as 12 and the “died from malignant tumor” value [1] is given as 13. The “died from renal fibrosarcoma” value [1] was 1, the chromosome aberration [2] was “causing chromosome aberration” and the marrow inhibition incidence (dosage amount≦100 mg/m2) was 10˜20%. The marrow inhibition incidence (dosage≧120 mg/m2) was “about 40%”, the “excreted along with urine” value ([3]; 96 hours after treatment) was 25%˜45 and the “drug in human milk” value ([3]; reports) was “drug detected in human milk”.

For `CC(=O)O[C@H]1C(=O)[C@@]2(C)[C@H]([C@H](OC(=O)c3ccccc3)[C@]3(O)C[C@H](OC(=O)[C@H](O)[C@@H](NC(=O)c4ccccc4)c4ccccc4)C(C)=C1C3(C)C)[C@]1(OC(C)=O)CO[C@@H]1C[C@@H]2O` [Paclitaxel], the “renal clearance of the drug (share)” value ([4]; in vivo) is given as 1-8%, the protein binding ([4]; intravenous paclitaxel) is given as 89%-98 and the radiosensitization [5] is given as “significant radiosensitization”. For the same compound, the “incidence rate of serious neurotoxicity” value [6] was 6% and the “reduction of clearance of the drug” value [7] was “about ⅓”.
